In US11291666B2, “Uses” (INTRA-CELLULAR THERAPIES, INC., priority 2016, dated 2022):

Legend:
BV2 cells [1] = assay: RT-qPCR of selected genes in BV2 cells with ITI-214, cyclase activators and PKA/PKG inhibitors; format: cell-based, mouse; conditions: 10 μM forskolin, 5 μM DEANO or 100 nM ANP
Description: In a further experiment a group of genes is selected for further analysis by RT-qPCR. For comparison, genes are analyzed which have been implicated in the scientific literature in microglial and astrocyte activation, including genes in the complement pathway.
All sample values are normalized to an average of 3 reference genes and to vehicle control (ΔΔCt). The error bars represent the mean+/−SEM (n=4). From left to right, for each cytokine grouping, the bars indicate samples treated with: LPS, 0.1 μM 214+LPS, 0.4 μM 214+LPS, 1.1 μM 214+LPS, 3.3 μM 214+LPS, 10 μM 214+LPS, for each particular gene shown on the X-axis. Significant changes between LPS and 10 μM ITI-214+LPS (A) and Vehicle and 10 μM ITI-214 (B) are marked on the X-axis gene names and are calculated using a one-way ANOVA. * p<0.05, **p<0.01, ***p<0.001, ****p<0.0001.
In one particular experiment, BV2 cells are treated with 10 μM forskolin (FSK) to activate adenylyl cyclases, 5 μM DEANO to activate soluble guanylyl cyclase, or 100 nM atrial natriuretic peptide (ANP) to activate particulate guanylyl cyclase. […] Upon combining forskolin with ITI-214 some of the effects of ITI-214 inhibition can be increased. […] However, LIF reverts to LPS-level expression when forskolin is added.
Note that gene expression levels upon addition of PKA or PKG inhibitor to 10 μM ITI-214 are on the order of those relative to LPS treatment alone were reduced to levels equivalent to 3.3 μM ITI-214.

retinal ganglion cells = assay: Optic nerve injury (optic crush) model; format: in vivo, mouse; conditions: mice; intraocular injection after optic nerve injury; 14 days; FIG. 12
Description: A PDE1 inhibitory compound is tested in an optic nerve injury model (i.e., the “optic crush” model). The studies described below are carried out using the selective PDE1 inhibitor IC200041, which has the following structure:
In this model, optic nerve surgeries are carried out on male mice 8 wk of age (average body weight, 20-26 g) under general anesthesia, as described previously (Yin Y, et al., Oncomodulin links inflammation to optic nerve regeneration. Proc Natl Acad Sci USA. 2009; 106:19587-19592). Following nerve injury, 3 μl of fluid is removed from the eye and a solution containing the PDE1 inhibitory compound is injected intraocularly.
A total of 4 mouse retinas are treated with the PDE1 inhibitor, and phosphate buffered saline (PBS) is administered to a total of 10 mouse retinas as a control. Mice are typically euthanized with an overdose of anesthesia 14 days after optic nerve injury and are perfused with saline and 4% paraformaldehyde (PFA). These mice are 10 weeks old when killed. Optic nerves and eyes are dissected and postfixed in PFA. […] Axons are counted manually in at least 8 longitudinal sections per case at pre-specified distances from the injury site, and these numbers were converted into the number of regenerating axons at various distances.

HL60 cells = assay: Total cGMP levels in PMA-differentiated HL60 cells with ANP and ionomycin (competitive ELISA); format: cell-based, human
Description: We have shown that there is a synergistic effect between ANP and PDE1 inhibition. An immortalized human pro-myeloid cell line (HL60 from ATCC) is grown, differentiated and harvested as described in Bender, A T, and Beavo, J A, 2006, PNAS 103, 460-465. The cells are grown in HEPES buffered RPMI 1640 medium with penicillin, streptomycin, and 10% fetal bovine serum. Phorbol-12-myristate-13-acetate (PMA), at 100 nM for 3 days, is used to differentiate the HL60 cells into macrophage-like cells. Following differentiation, the cells are incubated with a PDE1 inhibitor or vehicle (DMSO) beginning at time 0. At 40 minutes, 5 μM ionomycin (a calcium ionophore) is added. At 50 minutes, 100 nM ANP was added. At 60 minutes, the cells are harvested. Total cGMP levels are measured using a competitive ELISA (Bender and Beavo, 2006).

BV2 cells [2] = assay: RNAseq analysis of LPS-stimulated BV2 cells, differentially expressed transcripts; format: cell-based, mouse; conditions: for genes significantly affected by this compound but not the other (Compound 214 / Rolipram): LPS-stimulated BV2 cells
Description: (§1) The test compound is added first, the LPS is added one hour later, and the cells and/or media are harvested at five hours from commencement of the experiment.
RNASeq: Flashfreeze BV2cells, isolate RNA, prepare a library using polyA selection, and conduct 1×50 bp single read sequencing on the Illumina HiSeq 2500 in High Output mode (using V4 chemistry). Genes are mapped to reference genome (GRCm38) using CLC Genomics Server. Number of reads per sample average ˜17 million. Differential gene expression analysis is performed using DESeq2software (Bioconductor.org). Differentially expressed genes (p<0.01, Waldtest) are reported as log 2(fold change).

BV2 cells [3] = assay: Quantitative PCR of inflammatory cytokine mRNA in LPS-treated BV2 cells; format: cell-based, mouse
Description: Levels of IL1β are measured using quantitative PCR of IL1β mRNA. IL1β is considered a marker of inflammation. Results are depicted in FIG. 2 (RQ: relative quantification of changes in gene expression in treated versus control samples; ***p<0.01 vs control, √p<0.01 vs LPS alone; ANOVA with Newman-Keuls post-hoc test).
BV2 cells are pretreated with compound, ITI-214 or rolipram, a PDE4 inhibitor, then stimulated with 50 ng/ml LPS for 4 hours. Expression levels of TNF, IL1β, Ccl2, and IL6 are measured. Normalized mRNA levels are shown as change from vehicle (ΔΔCt) and compared using a one-way ANOVA. […] The mRNA transcripts for TNF, IL1β, and Ccl2—three of the four cytokines studied in vivo—were elevated in BV2 cells treated with 50 ng/ml LPS.
as §1
(§2) RTqPCR: RNA from BV2 cells purified using RNeasyKit (Qiagen) and from mouse tissue using TRIzol (Ambion). TaqMan primer-probe assays from Thermo Fisher. mRNA levels for all conditions are normalized to GAPDH and to vehicle control (ΔΔCt). Data are analyzed statistically using one-way ANOVA with the Bonferroni post-test for multiple comparisons.

[4] = system: inflammatory gene expression in mouse striatum; assay: Inflammatory gene expression in mouse striatum after LPS (Q-PCR); format: in vivo; conditions: Striatum Mouse + LPS; initial results
Description: as §2
The results are based upon an evaluation of samples using Q-PCR.
Data from a further experiment measuring the effect of PDE1 inhibition on inflammatory gene expression in mouse striatum is depicted in FIG. 7. […] Striatal tissue is isolated and flash frozen, and RNA is extracted. Measurements from RT-qPCR are shown as log 2 fold change (2ΔΔCt). n=4 *p<0.05, **p<0.01, ***p<0.001, ****p<0.0001.
Data from yet another experiment measuring the effect of PDE1 inhibition on inflammatory gene expression in mouse striatum is depicted in FIG. 8. […] Striatal tissue is analyzed for mRNA levels of TNF, IL1β, Ccl2, and IL6. Expression levels are shown as change in Q-PCR signal from vehicle (ΔΔCt) and compared using an ANOVA. * p<0.05, **p<0.01, ***p<0.001.

[5] = BV2 cells, Compound 214 at 10 μM, FIG. 4a

With CC[C@H](C)[C@@H]1NC(=O)[C@H](CCCNC(=N)N)NC(=O)[C@H](CC(=O)O)NC(=O)[C@H](CCSC)NC(=O)[C@H](CCCNC(=N)N)NC(=O)CNC(=O)CNC(=O)[C@H](Cc2ccccc2)NC(=O)[C@@H](NC(=O)[C@H](CO)NC(=O)[C@H](CO)NC(=O)[C@H](CCCNC(=N)N)NC(=O)[C@H](CCCNC(=N)N)NC(=O)[C@H](CC(C)C)NC(=O)[C@@H](N)CO)CSSC[C@@H](C(=O)N[C@@H](CC(N)=O)C(=O)N[C@@H](CO)C(=O)N[C@@H](Cc2ccccc2)C(=O)N[C@@H](CCCNC(=N)N)C(=O)N[C@@H](Cc2ccc(O)cc2)C(=O)O)NC(=O)CNC(=O)[C@H](CC(C)C)NC(=O)CNC(=O)[C@H](CO)NC(=O)[C@H](CCC(N)=O)NC(=O)[C@H](C)NC(=O)CNC1=O [atrial natriuretic peptide, reference compound] the “effect of the activator alone on LPS induction of the selected genes” value (BV2 cells [1]) was “little or no effect”.

With CN1C(=O)c2c(nn(Cc3ccc(-c4ccccn4)cc3)c2Nc2ccccc2)N2C1=N[C@@H]1CCC[C@@H]12 [IC200041] the “survival of retinal ganglion cells compared with the PBS control” value (retinal ganglion cells) was “highly effective”.

With CN1C(=O)c2c(nn(Cc3ccc(C(F)(F)F)cc3)c2Nc2ccccc2)N2C1=N[C@@H]1CCC[C@@H]12 [Example 20 of U.S. Pat. No. 8,273,750, (6aR,9aS)-3-(phenylamino)-5,6a,7,8,9,9a-hexahydro-5-methyl-2-(4-(trifluoromethyl)-benzyl)-cyclopent[4,5]imidazo[1,2-a]pyrazolo[4,3-e]pyrimidin-4(2H)-one] the “cGMP level, ANP in combination with the PDE1 inhibitor versus either alone” value (HL60 cells; 100 nM ANP + 100 nM PDE1 inhibitor) was “greater”, the “decreasing cGMP signal caused by activation of PDE1 by ionomycin” value (HL60 cells; PDE1 inhibitor + sub-optimal ANP, ionomycin 5 μM) was “synergistically prevented” and the “cGMP level, co-treatment with ANP and the PDE1 inhibitor versus ANP and SCH 51866” value (HL60 cells; SCH 51866 used at 5 μM) was “much greater”. The “effect of ionomycin on cGMP when combined with ANP and the PDE1 inhibitor” value (HL60 cells; ionomycin 5 μM) was “only a weak cGMP lowering effect”.

For CCN(CC)/[N+]([O-])=N/[O-].[Na+] [DEANO, reference compound], the “effect of the activator alone on LPS induction of the selected genes” value (BV2 cells [1]) was “little or no effect”.

In the case of COc1ccc(C2CNC(=O)C2)cc1OC1CCCC1 (stereo not shown) [rolipram, reference compound], the “mRNA transcripts decreased in the presence of LPS + compound vs. LPS alone” value (BV2 cells [2]; BV2 cells, RNAseq) is reported as 209 transcripts, the “transcripts elevated in the presence of LPS + compound vs. LPS alone” value (BV2 cells [2]; BV2 cells, RNAseq) is reported as 156 transcripts and the “genes significantly affected by this compound but not the other (Compound 214 / Rolipram)” value (BV2 cells [2]; further RNASeq analysis) is reported as 251 genes. For the same molecule, the “genes significantly affected by this compound but not the other (Compound 214 / Rolipram)” value (BV2 cells [2]; still a further experiment) was 1463 genes, the “Chemokine (C-C) motif Ligand 2 expression (Q-PCR)” value (BV2 cells [3]; BV2 + LPS, initial results) was “Down” and the “Interleukin 1 beta expression (Q-PCR)” value (BV2 cells [3]; BV2 + LPS, initial results) was “UP UP”. The “Tumor necrosis factor expression (Q-PCR)” value (BV2 cells [3]; BV2 + LPS, initial results) was “Down”, the “LPS-induced increase in expression of Ccl2” value (BV2 cells [3]; [5]) was “reducing” and the “LPS-induced increase in expression of IL1β” value (BV2 cells [3]; [5]) was “increasing”. For the same molecule, the “LPS-induced increase in expression of TNFα” value (BV2 cells [3]; [5]) was “reducing”, the “Chemokine (C-C) motif Ligand 2 expression (Q-PCR)” value [4] was “Down” and the “Interleukin 1 beta expression (Q-PCR)” value [4] was “UP-UP”. The “Interleukin 6 expression (Q-PCR)” value [4] was “UP-UP”, the “Oncostatin M expression (Q-PCR)” value [4] was “Down” and the “Tumor necrosis factor expression (Q-PCR)” value [4] was “Down”.
